Experimental data taken from US8168592B2 (Amgen Inc., priority 2005, dated 2012).
Read-outs that look alike come from different tables or passages of the source. Bridge positions count the residues as written; N and C are the ends. Square brackets hold non-standard residues; d marks the D form. Ends that are not written are not given here. Peptide text beside a SMILES is read from it. Oic = O=C(O)[C@@H]1C[C@@H]2CCCC[C@@H]2N1; Phe(4-I) = N[C@@H](Cc1ccc(I)cc1)C(=O)O; 1Nal = N[C@@H](Cc1cccc2ccccc12)C(=O)O; 2Nal = N[C@@H](Cc1ccc2ccccc2c1)C(=O)O; hArg = N=C(N)NCCCC[C@H](N)C(=O)O; Tic = O=C(O)[C@@H]1Cc2ccccc2CN1; Cit = NC(=O)NCCC[C@H](N)C(=O)O

Target: T1, CGRP1 receptor (Homo sapiens, UniProt O60894+Q16602)
T1 construct: SK-N-MC cells express CRLR and RAMP1, which form CGRP1 receptor; endogenous in cells; host or cells: SK-N-MC human neuroblastoma cells
T1 sequence (Q16602 23-461): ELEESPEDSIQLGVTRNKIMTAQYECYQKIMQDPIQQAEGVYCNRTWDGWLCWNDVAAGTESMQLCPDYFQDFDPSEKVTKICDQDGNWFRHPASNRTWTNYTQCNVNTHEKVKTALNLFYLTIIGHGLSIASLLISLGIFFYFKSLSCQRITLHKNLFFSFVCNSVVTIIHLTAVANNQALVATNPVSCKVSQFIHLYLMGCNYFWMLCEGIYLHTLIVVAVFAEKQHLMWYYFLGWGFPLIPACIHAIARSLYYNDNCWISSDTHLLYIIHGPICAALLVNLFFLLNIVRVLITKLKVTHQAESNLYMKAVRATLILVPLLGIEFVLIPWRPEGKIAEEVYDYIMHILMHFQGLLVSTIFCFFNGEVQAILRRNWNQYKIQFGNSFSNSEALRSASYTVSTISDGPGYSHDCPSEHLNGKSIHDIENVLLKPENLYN
T1 sequence (O60894 27-148): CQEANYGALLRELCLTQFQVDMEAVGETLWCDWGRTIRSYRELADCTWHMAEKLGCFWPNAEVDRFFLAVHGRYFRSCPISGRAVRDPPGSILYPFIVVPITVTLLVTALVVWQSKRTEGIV
Assay: in vitro CGRP1 receptor mediated cAMP assay in SK-N-MC cells
Type: cell-based
Conditions: for improved potency relative to native CGRP(8-37) (SEQ ID NO:1): cAMP assay
Method in brief: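 Intracellular cAMP served as the Gs-coupled CGRP1 readout in endogenously expressing SK-N-MC cells. After a 15-minute room-temperature step in plasma-free medium, cell lysates (30 minutes, 37° C) went into a competitive ELISA with a cAMP-AP conjugate and anti-cAMP antibody for 1 hour, then a 30-minute substrate enhancer step before reading.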

[1] = Table 2C, unconjugated peptide, read-out: Peptide IC50

CC(=O)N[C@@H](Cc1c[nH]c2ccccc12)C(=O)N[C@H](C(=O)N[C@H](C(=O)N[C@@H](Cc1c[nH]cn1)C(=O)N[C@@H](CCCCNC(=N)N)C(=O)N[C@@H](CC(C)C)C(=O)N[C@@H](C)C(=O)NCC(=O)N[C@@H](CC(C)C)C(=O)N[C@@H](CC(C)C)C(=O)N[C@@H](CO)C(=O)N[C@@H](CCCNC(=N)N)C(=O)N[C@@H](CO)C(=O)NCC(=O)NCC(=O)N[C@H](C(=O)N[C@H](C(=O)N[C@@H](CCCNC(=N)N)C(=O)N[C@@H](CCCCN)C(=O)N[C@@H](CC(N)=O)C(=O)N[C@@H](Cc1ccccc1)C(=O)N[C@H](C(=O)N1CCC[C@H]1C(=O)N[C@H](C(=O)N[C@@H](CC(=O)O)C(=O)N[C@H](C(=O)NCC(=O)N1CCC[C@H]1C(=O)N[C@@H](Cc1ccccc1)C(=O)N[C@@H](C)C(=O)N[C@@H](Cc1ccccc1)C(N)=O)C(C)C)[C@@H](C)O)C(C)C)C(C)C)C(C)C)[C@@H](C)O)C(C)C [compound 865]
IC50 [1]: 0.44 nM

SEQ ID NO:5 (Ac-WVTHRLAGLLSRSGGVVKNNFVPTDVGPFAF-NH2)
improved potency relative to native CGRP(8-37) (SEQ ID NO:1): greater than 35 fold

CC(=O)N[C@@H](CCCNC(N)=O)C(=O)N[C@@H](CC(C)C)C(=O)N[C@@H](C)C(=O)NCC(=O)N[C@@H](CC(C)C)C(=O)N[C@@H](CC(C)C)C(=O)N[C@@H](CO)C(=O)N[C@@H](CCCNC(N)=O)C(=O)N[C@@H](CO)C(=O)NCC(=O)NCC(=O)N[C@H](C(=O)N[C@H](C(=O)N[C@@H](CCCCNC(=N)N)C(=O)N[C@@H](CCCCN)C(=O)N[C@@H](CC(N)=O)C(=O)N[C@@H](Cc1ccccc1)C(=O)N[C@H](C(=O)N1CCC[C@H]1C(=O)N[C@H](C(=O)N[C@@H](CC(=O)O)C(=O)N[C@H](C(=O)NCC(=O)N1CCC[C@H]1C(=O)N[C@@H](Cc1ccccc1)C(=O)N[C@@H](C)C(=O)N[C@@H](Cc1ccccc1)C(N)=O)C(C)C)[C@@H](C)O)C(C)C)C(C)C)C(C)C [compound 657] (Ac-[Cit]LAGLLS[Cit]SGGVV[hArg]KNFVPTDVGPFAF-NH2)
IC50 (Table 2A, read-out: IC50): 13 nM

SEQ ID NO:28 (WVTHXLAGLLSRSGGVVRKNFVPTDVGPFAF; CGRP peptide; MOD_RES (1)..(1): …ON; MISC_FEATURE (5)..(5): xaa=citrulline; MISC_FEATURE (19)..(19): PEGylated; MOD_RES (31)..(31): AMIDATION)
antagonist activity in cAMP assay, in words: relatively minor loss of in vitro antagonist activity

CC(=O)N[C@@H](Cc1c[nH]c2ccccc12)C(=O)N[C@H](C(=O)N[C@H](C(=O)N[C@@H](Cc1c[nH]cn1)C(=O)N[C@@H](CCCNC(N)=O)C(=O)N[C@@H](CC(C)C)C(=O)N[C@@H](C)C(=O)NCC(=O)N[C@H]1CCC(=O)NCCCC[C@@H](C(=O)NCC(=O)NCC(=O)N[C@H](C(=O)N[C@H](C(=O)N[C@@H](CCCCNC(=N)N)C(=O)N[C@@H](CCCCN)C(=O)N[C@@H](CC(N)=O)C(=O)N[C@@H](Cc2ccccc2)C(=O)N[C@H](C(=O)N2CCC[C@H]2C(=O)N[C@H](C(=O)N[C@@H](CC(=O)O)C(=O)N[C@H](C(=O)NCC(=O)N2[C@H](C(=O)N[C@@H](Cc3cccc4ccccc34)C(=O)N[C@@H](C)C(=O)N[C@@H](Cc3ccccc3)C(N)=O)C[C@@H]3CCCC[C@@H]32)C(C)C)[C@@H](C)O)C(C)C)C(C)C)C(C)C)NC(=O)[C@H](CCCCNC(=N)N)NC(=O)[C@H](CO)NC(=O)[C@H](CC(C)C)NC1=O)[C@@H](C)O)C(C)C [compound 944] (Ac-WVTH[Cit]LAGELS[hArg]KGGVV[hArg]KNFVPTDVG[Oic][1Nal]AF-NH2; lactam 9-13)
IC50 [1]: 0.85 nM

SEQ ID NO:21 (WVTHXLAGLLSRSGGVVRKNFVPTDVGPFAF; CGRP peptide; MOD_RES (1)..(1): …ON; MISC_FEATURE (5)..(5): xaa=homoarginine; MOD_RES (31)..(31): AMIDATION)
antagonist activity in cAMP assay, in words: well tolerated

CC(C)C[C@H](NC(=O)CNC(=O)[C@H](C)NC(=O)[C@H](CC(C)C)NC(=O)[C@H](CCCNC(=N)N)NC(=O)[C@H](Cc1cnc[nH]1)NC(=O)[C@@H](NC(=O)[C@@H](NC(=O)[C@@H](N)Cc1c[nH]c2ccccc12)C(C)C)[C@@H](C)O)C(=O)N[C@@H](CC(C)C)C(=O)N[C@@H](CO)C(=O)N[C@@H](CCCNC(=N)N)C(=O)N[C@@H](CO)C(=O)NCC(=O)NCC(=O)N[C@H](C(=O)N[C@H](C(=O)N[C@@H](CCCCN)C(=O)N[C@@H](CC(N)=O)C(=O)N[C@@H](CC(N)=O)C(=O)N[C@@H](Cc1ccccc1)C(=O)N[C@H](C(=O)N1CCC[C@H]1C(=O)N[C@H](C(=O)N[C@@H](CC(N)=O)C(=O)N[C@H](C(=O)NCC(=O)N[C@@H](CO)C(=O)N[C@@H](CCCCN)C(=O)N[C@@H](C)C(=O)N[C@@H](Cc1ccccc1)C(N)=O)C(C)C)[C@@H](C)O)C(C)C)C(C)C)C(C)C [compound 4]
IC50 (Table 3, unconjugated CGRP peptide analogs, n = 2-4, read-out: IC50): 0.64 nM

SEQ ID NO:3 (CGGGGGGGVTHRLAGLLSRSGGVVKNNFVPTDVGPFAF-NH2)
improved potency relative to native CGRP(8-37) (SEQ ID NO:1): more than 6 fold

CC(=O)N[C@@H](Cc1c[nH]c2ccccc12)C(=O)N[C@H](C(=O)N[C@H]1CCC(=O)NCCCC[C@@H](C(=O)NCC(=O)N[C@@H](CC(C)C)C(=O)N[C@@H](CC(C)C)C(=O)N[C@@H](CO)C(=O)N[C@@H](CCCCNC(=N)N)C(=O)N[C@@H](CO)C(=O)NCC(=O)NCC(=O)N[C@H](C(=O)N[C@H](C(=O)N[C@@H](CCCCNC(=N)N)C(=O)N[C@@H](CCCCN)C(=O)N[C@@H](CC(N)=O)C(=O)N[C@@H](Cc2ccccc2)C(=O)N[C@H](C(=O)N2CCC[C@H]2C(=O)N[C@H](C(=O)N[C@@H](CC(=O)O)C(=O)N[C@H](C(=O)NCC(=O)N2CCC[C@H]2C(=O)N[C@@H](Cc2ccccc2)C(=O)N[C@@H](C)C(=O)N[C@@H](Cc2ccccc2)C(N)=O)C(C)C)[C@@H](C)O)C(C)C)C(C)C)C(C)C)NC(=O)[C@H](CC(C)C)NC(=O)[C@H](CCCNC(=N)N)NC(=O)[C@H](Cc2c[nH]cn2)NC1=O)C(C)C [compound 905] (Ac-WVEHRLKGLLS[hArg]SGGVV[hArg]KNFVPTDVGPFAF-NH2; lactam 3-7)
IC50 (Peptide IC50, Table 2C, unconjugated peptide): 1.7 nM

CC(=O)N[C@@H](Cc1c[nH]c2ccccc12)C(=O)N[C@H](C(=O)N[C@H](C(=O)N[C@@H](Cc1c[nH]cn1)C(=O)N[C@@H](CCCNC(N)=O)C(=O)N[C@@H](CC(C)C)C(=O)N[C@@H](C)C(=O)NCC(=O)N[C@@H](CC(C)C)C(=O)N[C@@H](CC(C)C)C(=O)N[C@@H](CO)C(=O)N[C@@H](CCCNC(N)=O)C(=O)N[C@@H](CO)C(=O)NCC(=O)NCC(=O)N[C@H](C(=O)N[C@H](C(=O)N[C@@H](CCCCNC(=N)N)C(=O)N[C@@H](CCCCN)C(=O)N[C@@H](CC(N)=O)C(=O)N[C@@H](Cc1ccccc1)C(=O)N[C@H](C(=O)N1[C@H](C(=O)N[C@H](C(=O)N[C@@H](CC(=O)O)C(=O)N[C@H](C(=O)NCC(=O)N2[C@H](C(=O)N[C@@H](Cc3ccccc3)C(=O)N[C@@H](C)C(=O)N[C@@H](Cc3ccc4ccccc4c3)C(N)=O)C[C@@H]3CCCC[C@@H]32)C(C)C)[C@@H](C)O)C[C@@H]2CCCC[C@@H]21)C(C)C)C(C)C)C(C)C)[C@@H](C)O)C(C)C [compound 132] (Ac-WVTH[Cit]LAGLLS[Cit]SGGVV[hArg]KNFV[Oic]TDVG[Oic]FA[2Nal]-NH2)
IC50 (Table 2A, read-out: IC50): 2.57 nM

CC(=O)N[C@@H](Cc1c[nH]c2ccccc12)C(=O)N[C@H](C(=O)N[C@H](C(=O)N[C@@H](Cc1c[nH]cn1)C(=O)N[C@@H](CCCNC(N)=O)C(=O)N[C@@H](CC(C)C)C(=O)N[C@@H](C)C(=O)NCC(=O)N[C@@H](CC(C)C)C(=O)N[C@@H](CC(C)C)C(=O)N[C@@H](CO)C(=O)N[C@@H](CCCNC(N)=O)C(=O)N[C@@H](CO)C(=O)NCC(=O)NCC(=O)N[C@H](C(=O)N[C@H](C(=O)N[C@@H](CCCCNC(=N)N)C(=O)N[C@@H](CCCCN)C(=O)N[C@@H](CC(N)=O)C(=O)N[C@@H](Cc1ccc(I)cc1)C(=O)N[C@H](C(=O)N1[C@H](C(=O)N[C@H](C(=O)N[C@@H](CC(=O)O)C(=O)N[C@H](C(=O)NCC(=O)N2CCC[C@H]2C(=O)N[C@@H](Cc2ccc(I)cc2)C(=O)N[C@@H](C)C(=O)N[C@@H](Cc2ccccc2)C(N)=O)C(C)C)[C@@H](C)O)C[C@@H]2CCCC[C@@H]21)C(C)C)C(C)C)C(C)C)[C@@H](C)O)C(C)C [compound 136] (Ac-WVTH[Cit]LAGLLS[Cit]SGGVV[hArg]KN[Phe(4-I)]V[Oic]TDVGP[Phe(4-I)]AF-NH2)
IC50 (Table 2A, read-out: IC50): 2.34 nM

CC(=O)N[C@@H](Cc1c[nH]c2ccccc12)C(=O)N[C@H](C(=O)N[C@H](C(=O)N[C@@H](Cc1c[nH]cn1)C(=O)N[C@@H](CCCNC(N)=O)C(=O)N[C@@H](CC(C)C)C(=O)N[C@@H](C)C(=O)NCC(=O)N[C@@H](CC(C)C)C(=O)N[C@@H](CC(C)C)C(=O)N[C@@H](CO)C(=O)N[C@@H](CCCNC(N)=O)C(=O)N[C@@H](CO)C(=O)NCC(=O)NCC(=O)N[C@H](C(=O)N[C@H](C(=O)N[C@@H](CCCNC(=N)N)C(=O)N[C@@H](CCCCN)C(=O)N[C@@H](CC(N)=O)C(=O)N[C@@H](Cc1ccccc1)C(=O)N[C@H](C(=O)N1CCC[C@H]1C(=O)N[C@H](C(=O)N[C@@H](CC(=O)O)C(=O)N[C@H](C(=O)NCC(=O)N1CCC[C@H]1C(=O)N1Cc2ccccc2C[C@H]1C(=O)N[C@@H](C)C(=O)N[C@@H](Cc1ccccc1)C(N)=O)C(C)C)[C@@H](C)O)C(C)C)C(C)C)C(C)C)[C@@H](C)O)C(C)C [compound 146] (Ac-WVTH[Cit]LAGLLS[Cit]SGGVVRKNFVPTDVGP[Tic]AF-NH2)
IC50 (Table 2A, read-out: IC50): 10.1 nM
